Data published in the OligoGym collection.
After the bases stand the sugars from the 5' end (letter, count) and the backbone: PS all phosphorothioate, else s phosphorothioate and o phosphodiester by linkage. Methylation of C is not given here. e = 2'-O-(2-methoxyethyl) (MOE); k = constrained ethyl (cEt); d = 2'-deoxy (DNA); m = 2'-O-methyl

Target: HSD17B13
Details: ASO, HepaRG, 0.02 µM

Sequence	target mRNA inhibition [%]
ATCCTATATACATCCA (sugars k3 d9 k3 e1, PS)	0
ATGGTAAACTGTATGC (sugars k3 d10 k3, PS)	19
CAACTATGTAATAGGC (sugars k3 d10 k3, PS)	1

Same assay, conditions: ASO, HepaRG, 0.078 µM

Sequence	target mRNA inhibition [%]
ATCCTATATACATCCA (sugars k3 d9 k3 e1, PS)	7
ATGGTAAACTGTATGC (sugars k3 d10 k3, PS)	23
CAACTATGTAATAGGC (sugars k3 d10 k3, PS)	17

Same assay, conditions: ASO, HepaRG, 0.313 µM

Sequence	target mRNA inhibition [%]
ATCCTATATACATCCA (sugars k3 d9 k3 e1, PS)	39
ATGGTAAACTGTATGC (sugars k3 d10 k3, PS)	53
CAACTATGTAATAGGC (sugars k3 d10 k3, PS)	42

Same assay, conditions: ASO, HepaRG, 1 µM

Sequence	target mRNA inhibition [%]
ATATGTCCAGGTTGAG (sugars k3 d1 m1 d8 k3, PS)	48
ATATGTCCAGGTTGAG (sugars k3 d9 k3 e1, PS)	71
ATATGTCCAGGTTGAG (sugars kkdddddddddkekek, PS)	28
ATATGTGAAGAGCTGG (sugars k3 d10 k3, PS)	51
ATATTATCAGGACTGA (sugars k3 d10 k3, PS)	47
ATATTCCAGGATTTGC (sugars k3 d10 k3, PS)	26
ATATTCTGTGGCATGG (sugars kkdddddddddkekek, PS)	43
ATATTGAGGCACTGGA (sugars k3 d10 k3, PS)	53
ATATTGATATACGATG (sugars k3 d10 k3, PS)	0
ATCAACCTGCACACCA (sugars k3 d10 k3, PS)	63
ATCAAGACATTCTAGC (sugars k3 d10 k3, PS)	61
ATCAATGCCTTAGCCC (sugars k3 d10 k3, PS)	38
ATCACAAGTAAGGTAA (sugars k3 d10 k3, PS)	62
ATCAGTTTTCCTCATG (sugars k3 d10 k3, PS)	48
ATCCAAAGATGAGAGT (sugars k3 d10 k3, PS)	5
ATCCCAACCAAACTTC (sugars k3 d10 k3, PS)	15
ATCCTATATACATCCA (sugars k3 d9 k3 e1, PS)	75
ATCCTATATACATCCA (sugars kkdddddddddkekek, PS)	65
ATCTATCAGACTTCTT (sugars k3 d10 k3, PS)	47
ATCTATCAGACTTCTT (sugars kkdddddddddkekek, PS)	37
ATCTATTATGCACTCT (sugars k3 d10 k3, PS)	24
ATCTCTGGGACCAAGG (sugars k3 d9 k3 e1, PS)	53
ATGAAGTTAGTATAGT (sugars k3 d10 k3, PS)	55
ATGAGGTAAGGAATCC (sugars k3 d10 k3, PS)	0
ATGAGGTTTTGATACC (sugars k3 d1 m1 d8 k3, PS)	49
ATGAGGTTTTGATACC (sugars k3 d10 k3, PS)	47
ATGAGGTTTTGATACC (sugars kkdddddddddkekek, PS)	51

Sequence	target mRNA inhibition [%]
ATGCAAAAGCATTCTA (sugars k3 d10 k3, PS)	50
ATGCTAAAAGCTCACC (sugars k3 d10 k3, PS)	50
ATGCTACTTGAACAGT (sugars k3 d10 k3, PS)	47
ATGGATCTAGAACACT (sugars k3 d10 k3, PS)	43
ATGGCTACAGATTGGA (sugars kkdddddddddkekek, PS)	57
ATGGTAAACTGTATGC (sugars k3 d10 k3, PS)	78
ATGGTAAGGAGTAGTG (sugars k3 d10 k3, PS)	17
ATGTAATAGCCAGTAC (sugars k3 d1 m1 d8 k3, PS)	42
ATGTAATAGCCAGTAC (sugars k3 d9 k3 e1, PS)	63
ATGTAATAGCCAGTAC (sugars kkdddddddddkekek, PS)	47
ATGTAATAGGCAGTAA (sugars k3 d10 k3, PS)	33
ATGTATCTTATAAGAC (sugars kkdddddddddkekek, PS)	18
ATGTATGAGGTCTCCG (sugars k3 d10 k3, PS)	63
ATGTCAGACCTCTGTG (sugars k3 d10 k3, PS)	19
ATGTCTTGGTAATCTC (sugars k3 d10 k3, PS)	23
ATGTGAAGAGCTGGTA (sugars k3 d1 m1 d8 k3, PS)	26
ATGTGAAGAGCTGGTA (sugars k3 d10 k3, PS)	42
ATGTGAAGAGCTGGTA (sugars kkkddkddddddkkke, PS)	56
ATGTGATTGAGTTCTC (sugars k3 d10 k3, PS)	36
ATGTTTTGATCCAGGG (sugars k3 d10 k3, PS)	46
ATTAACATTCGGCTAG (sugars k3 d10 k3, PS)	17
ATTAAGCATTGTTAGC (sugars k3 d10 k3, PS)	0
ATTAAGTACTGTGAGA (sugars k3 d10 k3, PS)	1
ATTAATCATGGGACAG (sugars k3 d10 k3, PS)	20
ATTAATGCCACCCTAC (sugars k3 d10 k3, PS)	6
ATTACAGCCTTAGAGT (sugars k3 d10 k3, PS)	56
ATTAGTCTTGATGTAG (sugars k3 d10 k3, PS)	67

Sequence	target mRNA inhibition [%]
ATTATTTCTTGCGAGA (sugars k3 d10 k3, PS)	60
ATTCTATAGCTAAGTA (sugars k3 d10 k3, PS)	23
ATTGAATAGCCATGTA (sugars k3 d10 k3, PS)	39
ATTGAATTCACTATCT (sugars k3 d10 k3, PS)	31
ATTGATACACCAATGC (sugars k3 d10 k3, PS)	66
ATTGATTCGAAACTAT (sugars k3 d10 k3, PS)	22
ATTGTAATCTTGAGGC (sugars k3 d10 k3, PS)	39
ATTGTATGAGGTCTCT (sugars k3 d10 k3, PS)	49
ATTTAAAATAGAGTCG (sugars k3 d10 k3, PS)	24
ATTTTTGGTGAACCCA (sugars k3 d10 k3, PS)	8
CAAAACAAGATTAGTC (sugars k3 d10 k3, PS)	18
CAAAACCTTTGTTGCC (sugars k3 d10 k3, PS)	14
CAAACATGGATGTTAG (sugars k3 d10 k3, PS)	49
CAAACCTTGAATGAGT (sugars k3 d10 k3, PS)	53
CAAAGTTAATAGGACT (sugars k3 d10 k3, PS)	50
CAAAGTTTGGGCAGAG (sugars k3 d10 k3, PS)	44
CAAATGAGGCGGCACT (sugars k3 d10 k3, PS)	32
CAAATTCATAAGTAGT (sugars k3 d10 k3, PS)	76
CAACACTAATCTCAGT (sugars k3 d10 k3, PS)	4
CAACAGTTTAGATTGC (sugars k3 d10 k3, PS)	66
CAACTATGTAATAGGC (sugars k3 d10 k3, PS)	79
CAAGACATTCTAGCCT (sugars k3 d10 k3, PS)	58
CAAGACTTAAACACCA (sugars k3 d10 k3, PS)	55
CAAGAGGATAGTCCAT (sugars k3 d1 m1 d8 k3, PS)	60
CAAGTAAGGTAAAGTC (sugars k3 d10 k3, PS)	33
CAATAATAATGGGCAG (sugars k3 d10 k3, PS)	43
CAATACAGGCCATAAT (sugars k3 d10 k3, PS)	0

Sequence	target mRNA inhibition [%]
CAATTCACATATGTGA (sugars k3 d10 k3, PS)	11
CACATACGCATGCGCA (sugars k3 d10 k3, PS)	59
CACCAATGCAGTTTGT (sugars k3 d10 k3, PS)	42
CACCATGAAGGACTCC (sugars k3 d10 k3, PS)	48
CACCATGACAGCTTCA (sugars k3 d10 k3, PS)	65
CACCGTTTTGGGCTAA (sugars kkdddddddddkekek, PS)	42
CACCTTTCATAATGTA (sugars k3 d10 k3, PS)	59
CAGAACCAATATGCTC (sugars k3 d10 k3, PS)	56
CAGAATATATACTAGG (sugars k3 d10 k3, PS)	55
CAGAGACATGAGGTTT (sugars k3 d1 m1 d8 k3, PS)	61
CAGCTATAGGTAGCTA (sugars k3 d10 k3, PS)	0
CAGGAAGACAGGTAAT (sugars k3 d10 k3, PS)	60
CAGGGTGGTAACGGTG (sugars k3 d1 m1 d8 k3, PS)	29
CAGGGTGGTAACGGTG (sugars k3 d10 k3, PS)	55
CAGGTAATTAATCTTG (sugars k3 d10 k3, PS)	54
CAGGTTGAGATAAAGC (sugars k3 d9 k3 e1, PS)	63
CAGGTTGAGATAAAGC (sugars k3 d10 k3, PS)	49
CAGTAAAATTATGCCT (sugars k3 d10 k3, PS)	38
CAGTAGGTGTGTTTCA (sugars k3 d10 k3, PS)	47
CAGTATCCCCTCAAAT (sugars k3 d10 k3, PS)	53
CAGTUTTCCTCATGAT (sugars k3 d1 m1 d8 k3, PS)	0
CATAACCATAGGACAT (sugars k3 d10 k3, PS)	41
CATAAGAGATGAGTAG (sugars k3 d10 k3, PS)	44
CATAATAATAGCTCTA (sugars k3 d9 k3 e1, PS)	55

Same assay, conditions: ASO, HepaRG, 1.25 µM

Sequence	target mRNA inhibition [%]
ATCCTATATACATCCA (sugars k3 d9 k3 e1, PS)	55
ATGGTAAACTGTATGC (sugars k3 d10 k3, PS)	75
CAACTATGTAATAGGC (sugars k3 d10 k3, PS)	73

Same assay, conditions: ASO, HepaRG, 5 µM

Sequence	target mRNA inhibition [%]
ATCCTATATACATCCA (sugars k3 d9 k3 e1, PS)	76
ATGGTAAACTGTATGC (sugars k3 d10 k3, PS)	89
CAACTATGTAATAGGC (sugars k3 d10 k3, PS)	92
